We go through two compounds from article PMC12442245, “Activity Analysis of the P2X Receptor Antagonist PPADS against Signal Transducer and Activator of Transcription Proteins” (Chembiochem, 2025).

The structures appear in SMILES notation.

The target in test [1] is T1, STAT1 (Homo sapiens, UniProt P42224).
T1 sequence (P42224 1-750): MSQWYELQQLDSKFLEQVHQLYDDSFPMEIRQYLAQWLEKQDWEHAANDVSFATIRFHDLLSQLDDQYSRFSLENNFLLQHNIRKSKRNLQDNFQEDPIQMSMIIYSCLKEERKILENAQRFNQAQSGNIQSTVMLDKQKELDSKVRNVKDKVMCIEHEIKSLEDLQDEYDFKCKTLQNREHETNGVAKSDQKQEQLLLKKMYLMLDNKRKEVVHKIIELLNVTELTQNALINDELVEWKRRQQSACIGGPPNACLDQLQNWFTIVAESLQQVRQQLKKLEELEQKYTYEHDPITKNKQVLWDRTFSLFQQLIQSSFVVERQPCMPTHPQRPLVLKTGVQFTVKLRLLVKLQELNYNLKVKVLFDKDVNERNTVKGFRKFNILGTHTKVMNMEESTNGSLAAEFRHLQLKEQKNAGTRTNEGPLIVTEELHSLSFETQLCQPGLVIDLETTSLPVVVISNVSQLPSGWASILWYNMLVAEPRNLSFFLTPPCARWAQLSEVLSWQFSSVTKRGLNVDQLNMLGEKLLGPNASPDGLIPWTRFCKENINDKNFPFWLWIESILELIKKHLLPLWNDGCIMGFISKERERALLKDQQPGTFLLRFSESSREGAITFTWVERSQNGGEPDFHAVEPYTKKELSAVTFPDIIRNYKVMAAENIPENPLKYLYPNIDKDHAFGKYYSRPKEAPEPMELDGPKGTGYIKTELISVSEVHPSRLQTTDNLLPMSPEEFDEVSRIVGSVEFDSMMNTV
In words: Competitive fluorescence polarization (FP) assay, STAT1. The class given is binding. The source says:
(§1) Screening of chemical libraries
(§2) Screening of chemical libraries comprising approximately 5000 known bioactive compounds in fluorescence polarization-based assays against phosphorylation-dependent protein-protein interaction domains, including STAT proteins, has been described.[1] PPADS was purchased from Sigma-Aldrich, and iso-PPADS from Bio-Techne.
(§3) Fluorescence polarization assays
(§4) Competitive fluorescence polarization (FP) assays for STAT1,[2] STAT3,[3] STAT4,[4] STAT5a,[5] STAT5b[6] and STAT6[1] were performed as previously described. Briefly, peptide binding to proteins was analyzed using the following carboxyfluorescein (CF) -labelled pepti des at a concentration of 10 nM: STAT1: 5-CF-GpYDKPHVL-OH, STAT3: 5-CF-GpYLPQTV -NH2, STAT4: 5-CF-GpYLPQNID-OH, STAT5a and STAT5b: 5-CF-GpYLVLDKW-OH, STAT6: 5- […]
CFGp[…]-OH. Proteins were used at a final concentration representing the approximate Kd value for binding of the corresponding peptide to the protein, namely 65 nM for STAT1, 65 nM for STAT3, 35 nM for STAT4, 125 nM for STAT5a, 65 nM for STAT5b and 75 nM for STAT6. Assays were carried out in buffer containing 10 mM Tris/HCl, 50 mM NaCl, 1 mM EDTA, 0.1% NP-40 substitute and 2% DMSO, with 1 mM reducing agent where applicable, at pH 8.0. […] FP was measured using an Infinite F500 plate reader (Tecan) and measurements were converted into percent inhibition according to […]
(In general: Polarisation of emitted light reports the rotation of a fluorescent probe.)

For test [2], the target named is STAT3 (Homo sapiens, UniProt P40763). In words: Competitive fluorescence polarization (FP) assay, STAT3. The class given is binding. The conditions noted are these: no reducing agent, 1 h.
From the text: as §1, §2, §3, §4
CFGp[…]-OH. Proteins were used at a final concentration representing the approximate Kd value for binding of the corresponding peptide to the protein, namely 65 nM for STAT1, 65 nM for STAT3, 35 nM for STAT4, 125 nM for STAT5a, 65 nM for STAT5b and 75 nM for STAT6. […] FP was measured using an Infinite F500 plate reader (Tecan) and measurements were converted into percent inhibition according to the binding curve equation. Curves were plotted and best fits calculated using OriginPro […]

Sequence of STAT3 (P40763 whole entry, species assumed): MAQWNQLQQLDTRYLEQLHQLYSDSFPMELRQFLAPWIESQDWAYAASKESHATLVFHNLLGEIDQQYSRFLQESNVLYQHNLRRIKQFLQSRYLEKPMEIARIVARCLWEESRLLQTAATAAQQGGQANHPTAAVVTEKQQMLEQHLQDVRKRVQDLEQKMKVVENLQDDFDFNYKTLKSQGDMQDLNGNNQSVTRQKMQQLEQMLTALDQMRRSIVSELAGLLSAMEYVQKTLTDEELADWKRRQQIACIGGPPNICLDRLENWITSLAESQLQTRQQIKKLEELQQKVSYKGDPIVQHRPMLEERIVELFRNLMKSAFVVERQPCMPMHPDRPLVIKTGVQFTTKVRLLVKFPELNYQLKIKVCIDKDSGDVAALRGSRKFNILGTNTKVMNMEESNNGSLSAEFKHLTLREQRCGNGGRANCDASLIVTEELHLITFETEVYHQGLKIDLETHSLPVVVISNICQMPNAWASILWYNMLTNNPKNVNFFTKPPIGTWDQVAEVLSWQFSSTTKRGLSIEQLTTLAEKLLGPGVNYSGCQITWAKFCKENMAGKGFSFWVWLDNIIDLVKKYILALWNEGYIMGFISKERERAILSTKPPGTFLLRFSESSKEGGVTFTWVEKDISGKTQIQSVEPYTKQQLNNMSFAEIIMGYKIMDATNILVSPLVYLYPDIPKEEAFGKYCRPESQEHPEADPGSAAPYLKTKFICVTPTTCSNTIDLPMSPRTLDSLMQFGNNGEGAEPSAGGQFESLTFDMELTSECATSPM

By IC50 is commonly meant the point on the concentration scale where inhibition reaches its midpoint. The low end stands for greater potency in that assay, the high end for weaker potency in that assay. Consider `Cc1nc(/N=N/c2ccc(S(=O)(=O)O)cc2S(=O)(=O)O)c(COP(=O)(O)O)c(C=O)c1O` [PPADS, pyridoxalphosphate‐6‐azophenyl‐2',4'‐disulfonic acid], for which the IC50 was found to be 87.4 ± 6.6 µM in test [1] (no reducing agent, 1 h) and 22.6 ± 1.6 µM in test [2].
The term inhibition denotes the share of the control response that was lost under treatment. A lower inhibition goes with a weak effect. For the compound `Cc1nc(/N=N/c2cc(S(=O)(=O)O)ccc2S(=O)(=O)O)c(COP(=O)(O)O)c(C=O)c1O` [iso‐PPADS], testing at 100 µM in test [1] (at 100 μM, the highest concentration tested) gave an inhibition of 41 ± 0.4%. In test [2], this compound gave an IC50 of 54 ± 14 µM.
